Laboratory results from PubChem BioAssay AID1963851 (Molecular Pharmacology Branch, DTP, NCI, 2024).
pIC50: −log10 of the molar value.

Tested on: 188146-221-R-J1-PDC complex spheroid viability
Assay: Anticancer human tumor 188146-221-R-J1-PDC patient-derived colon adenocarcinoma cell line growth inhibition [POLQ]
Conditions: for pIC50: curve of first compound; for viability, T/C: stronger effect = lower value; active = viability on the fitted dose curve at most 10% of control; inactive = the rest
Summary of the method: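 Three-cell-type spheroids modelling solid tumor plus stroma served as the readout system; POL inhibitors were tested individually and in combination, concentration ranges set by clinical Cmax where known.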
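Also: spheroids exposed to compounds for seven days.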
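For viability, T/C in this document: 100% = DMSO vehicle control viability.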

CC(=O)O[C@H]1C(=O)[C@@]2(C)[C@H]([C@H](OC(=O)c3ccccc3)[C@]3(O)C[C@H](OC(=O)[C@H](O)[C@@H](NC(=O)c4ccccc4)c4ccccc4)C(C)=C1C3(C)C)[C@]1(OC(C)=O)CO[C@@H]1C[C@@H]2O + Nc1ccc(C#CCN(C(=O)Cc2ncc(C(F)(F)F)cc2C(F)(F)F)c2ccc(F)cc2)nn1
7.87: pIC50 (second compound 0.0316 µM)
7.98: pIC50 (second compound 1 µM) | pIC50 (second compound 3.16 µM)
7.84: pIC50 (second compound 0.316 µM)
> 8.02: pIC50 (second compound 10 µM)
7.90: pIC50 (second compound 0.1 µM)
inactive: viability, T/C (second compound 0.0316 µM, first compound 0.00949 µM) 63.4% | viability, T/C (second compound 0.0316 µM, first compound 0.03 µM) 20.8% | viability, T/C (second compound 0.0316 µM, first compound 0.0949 µM) 12.1% | viability, T/C (second compound 0.0316 µM, first compound 0.3 µM) 12.3% | viability, T/C (second compound 0.0316 µM, first compound 0.949 µM) 12.3% | viability, T/C (second compound 0.0316 µM, first compound 3 µM) 11.4% | viability, T/C (second compound 0.1 µM, first compound 0.00949 µM) 59.2% | viability, T/C (second compound 0.1 µM, first compound 0.03 µM) 22.4% | viability, T/C (second compound 0.1 µM, first compound 0.0949 µM) 12.4% | viability, T/C (second compound 0.1 µM, first compound 0.3 µM) 11.6% | viability, T/C (second compound 0.1 µM, first compound 0.949 µM) 13.2% | viability, T/C (second compound 0.1 µM, first compound 3 µM) 17.6% | viability, T/C (second compound 0.316 µM, first compound 0.00949 µM) 67.8% | viability, T/C (second compound 0.316 µM, first compound 0.03 µM) 19.9% | viability, T/C (second compound 0.316 µM, first compound 0.0949 µM) 11.4% | viability, T/C (second compound 0.316 µM, first compound 0.3 µM) 13.2% | viability, T/C (second compound 0.316 µM, first compound 0.949 µM) 12.4% | viability, T/C (second compound 0.316 µM, first compound 3 µM) 12.9% | viability, T/C (second compound 1 µM, first compound 0.00949 µM) 53.1% | viability, T/C (second compound 1 µM, first compound 0.03 µM) 16% | viability, T/C (second compound 1 µM, first compound 0.0949 µM) 14% | viability, T/C (second compound 1 µM, first compound 0.3 µM) 10.8% | viability, T/C (second compound 1 µM, first compound 0.949 µM) 12.7% | viability, T/C (second compound 1 µM, first compound 3 µM) 13.6% | viability, T/C (second compound 3.16 µM, first compound 0.00949 µM) 53.4% | viability, T/C (second compound 3.16 µM, first compound 0.03 µM) 16.5% | viability, T/C (second compound 3.16 µM, first compound 0.0949 µM) 14.4% | viability, T/C (second compound 3.16 µM, first compound 0.3 µM) 12.5% | viability, T/C (second compound 3.16 µM, first compound 0.949 µM) 12.9% | viability, T/C (second compound 3.16 µM, first compound 3 µM) 14% | viability, T/C (second compound 10 µM, first compound 0.00949 µM) 45.5% | viability, T/C (second compound 10 µM, first compound 0.03 µM) 16.9% | viability, T/C (second compound 10 µM, first compound 0.0949 µM) 15.8% | viability, T/C (second compound 10 µM, first compound 0.3 µM) 13.3% | viability, T/C (second compound 10 µM, first compound 0.949 µM) 14.4% | viability, T/C (second compound 10 µM, first compound 3 µM) 17.6%

CC[C@@]1(O)C(=O)OCc2c1cc1n(c2=O)Cc2cc3c(CN(C)C)c(O)ccc3nc2-1 + Nc1ccc(C#CCN(C(=O)Cc2ncc(C(F)(F)F)cc2C(F)(F)F)c2ccc(F)cc2)nn1
< 7.00: pIC50 (second compound 0.0316 µM) | pIC50 (second compound 0.1 µM) | pIC50 (second compound 0.316 µM) | pIC50 (second compound 1 µM) | pIC50 (second compound 3.16 µM) | pIC50 (second compound 10 µM)
inactive: viability, T/C (second compound 0.0316 µM, first compound 0.000316 µM) 89.7% | viability, T/C (second compound 0.0316 µM, first compound 0.001 µM) 95.7% | viability, T/C (second compound 0.0316 µM, first compound 0.00316 µM) 84.3% | viability, T/C (second compound 0.0316 µM, first compound 0.01 µM) 101% | viability, T/C (second compound 0.0316 µM, first compound 0.0316 µM) 96.4% | viability, T/C (second compound 0.0316 µM, first compound 0.1 µM) 73.5% | viability, T/C (second compound 0.1 µM, first compound 0.000316 µM) 118% | viability, T/C (second compound 0.1 µM, first compound 0.001 µM) 84.1% | viability, T/C (second compound 0.1 µM, first compound 0.00316 µM) 95.1% | viability, T/C (second compound 0.1 µM, first compound 0.01 µM) 100% | viability, T/C (second compound 0.1 µM, first compound 0.0316 µM) 84.9% | viability, T/C (second compound 0.1 µM, first compound 0.1 µM) 74.9% | viability, T/C (second compound 0.316 µM, first compound 0.000316 µM) 104% | viability, T/C (second compound 0.316 µM, first compound 0.001 µM) 88.4% | viability, T/C (second compound 0.316 µM, first compound 0.00316 µM) 101% | viability, T/C (second compound 0.316 µM, first compound 0.01 µM) 97.5% | viability, T/C (second compound 0.316 µM, first compound 0.0316 µM) 103% | viability, T/C (second compound 0.316 µM, first compound 0.1 µM) 69.5% | viability, T/C (second compound 1 µM, first compound 0.000316 µM) 103% | viability, T/C (second compound 1 µM, first compound 0.001 µM) 102% | viability, T/C (second compound 1 µM, first compound 0.00316 µM) 90.5% | viability, T/C (second compound 1 µM, first compound 0.01 µM) 86.4% | viability, T/C (second compound 1 µM, first compound 0.0316 µM) 82.3% | viability, T/C (second compound 1 µM, first compound 0.1 µM) 68.2% | viability, T/C (second compound 3.16 µM, first compound 0.000316 µM) 106% | viability, T/C (second compound 3.16 µM, first compound 0.001 µM) 92.9% | viability, T/C (second compound 3.16 µM, first compound 0.00316 µM) 95.1% | viability, T/C (second compound 3.16 µM, first compound 0.01 µM) 89.3% | viability, T/C (second compound 3.16 µM, first compound 0.0316 µM) 83% | viability, T/C (second compound 3.16 µM, first compound 0.1 µM) 80.1% | viability, T/C (second compound 10 µM, first compound 0.000316 µM) 100% | viability, T/C (second compound 10 µM, first compound 0.001 µM) 96.8% | viability, T/C (second compound 10 µM, first compound 0.00316 µM) 98.9% | viability, T/C (second compound 10 µM, first compound 0.01 µM) 98.3% | viability, T/C (second compound 10 µM, first compound 0.0316 µM) 90.5% | viability, T/C (second compound 10 µM, first compound 0.1 µM) 66.2%
